What all share (type): cell-based
What all share (settings): human keratinocytes + LPS, 48 hours, mean ± standard deviation

The test system of one test is IL-1. Description: Production of IL-1 in LPS-stimulated human keratinocyte culture (sandwich ELISA). As to the method: (§1) the effect of formulation 1 (described in example 1) was evaluated In this study, in the synthesis of inflammatory mediators: IL-1, IL-6, IL-8, IL-10, IL-12, prostaglandin E2 (PGE2), Leukotriene B4 (LBT4), interferon gamma (IFN-gamma) and tumor necrosis factor alpha (TNF-alpha) in a culture of human keratinocytes in basal condition and stimulated with bacterial lipopolysaccharides (LPS), to simulate the inflammatory response.
(§2) Human keratinocytes (Cascade Biologics, USA) were sown in 75 cm^2 bottles (Corning Inc, USA), cultured and expanded in a wet incubator to 37° C. in the presence of CO2, using a specific culture medium. When reaching confluence, cells were seeded in 24 well plates (Nunc, USA) for further incubation with non-toxic dilutions of formulation 1, described in example 1, and for evaluation of proposed mediators.
(§3) The evaluated concentrations were 0.0002; 0.0001; and 0.000025 and 0.00005% (w/v).
(§4) Cells were kept in touch with dilutions of the formulations and LPS (Sigma, USA) for 48 hours for further collection of the supernatant and the cell lysate. As a positive control of production of mediators, the cells were kept in touch only with LPS (Sigma, USA) in the same amount administered along with the formulations (samples), and as a basal control, cells alone were used, without the presence of LPS or formulations.
(§5) Quantification of inflammatory mediators (IL-1, IL-6, IL-8, IL-10, IL-12, IFN-gamma and TNF-alpha) was performed using a kit of enzyme-linked immunosorbent assay (sandwich ELISA) commercially available. And the quantification of PGE2 and LBT4 mediators was performed by an ELISA competitive binding assay. The results were expressed in pg/mL, calculated from the values of references obtained with a standard curve constructed with known concentrations of the mediators of interest (table 2).

Another test relates to IL-8. Description: Production of IL-8 in LPS-stimulated human keratinocyte culture (sandwich ELISA). As for the experimental part:
as §1, §2, §3, §4, §5

A further test deals with LTB4. The experiment in a line: Production of LTB4 in LPS-stimulated human keratinocyte culture (ELISA competitive binding assay). As to the method:
as §1, §2, §3, §4, §5

The test system of the next test is IL-10. Description: Production of IL-10 in LPS-stimulated human keratinocyte culture (sandwich ELISA). As for the experimental part:
as §1, §2, §3, §4, §5

The next test relates to IL-12. The experiment in a line: Production of IL-12 in LPS-stimulated human keratinocyte culture (sandwich ELISA). As for the experimental part:
as §1, §2, §3, §4, §5

For another test, the system named is TNF-alpha. The experiment in a line: Production of TNF-alpha in LPS-stimulated human keratinocyte culture (sandwich ELISA). As to the method:
as §1, §2, §4, §5

Structures are written as SMILES.

`CC(C)=CCC[C@@](C)(O)[C@H]1CC=C(C)CC1` [Alpha bisabolol, 1-methyl-4-(1,5-dimethyl-1-hydroxy-4(5)-hexenyl)-1-cyclohexene]: the figures for the “Production of inflammatory mediators: IL-1” value in the test with IL-1 (Dilution: 0.00005 (% w/v)) and in the test on IL-1 (Dilution: 0.0002 (% w/v)) were 313.43 ± 33.30 pg/mL and 354.74 ± 37.03 pg/mL, respectively. Moreover, the “Production of inflammatory mediators: IL-8” value with IL-8 (Dilution: 0.00005 (% w/v)) is recorded as 64.23 ± 13.00 pg/mL; with IL-8 (Dilution: 0.0002 (% w/v)), 28.90 ± 9.58 pg/mL. For the same molecule, the “Production of inflammatory mediators: LTB4” value is 1083.83 ± 115.59 pg/mL with LTB4 (Dilution: 0.00005 (% w/v)) and 648.55 ± 11.09 pg/mL in the test with LTB4 (Dilution: 0.0002 (% w/v)). For the same molecule, the “Production of inflammatory mediators: IL-10” value in the test on IL-10 (Dilution: 0.00005 (% w/v)) is listed as 27.15 ± 2.99 pg/mL; with IL-10 (Dilution: 0.0002 (% w/v)) it was 28.30 ± 1.36 pg/mL. In addition, the results for the “Production of inflammatory mediators: IL-12” value in the test with IL-12 (Dilution: 0.00005 (% w/v)) and in the test with IL-12 (Dilution: 0.0002 (% w/v)) were 979.50 ± 35.35 pg/mL and 954.50 ± 70.71 pg/mL, respectively. In addition, the “Production of inflammatory mediators: TNF-alpha” value in the test on TNF-alpha (Dilution: 0.00005 (% w/v)) is listed as 6.64 ± 0.32 pg/mL; in the test with TNF-alpha (Dilution: 0.0002 (% w/v)), 8.00 ± 1.61 pg/mL.

For the molecule `CN(Cc1cnc2nc(N)nc(N)c2n1)c1ccc(C(=O)N[C@@H](CCC(=O)O)C(=O)O)cc1` [Methotrexate], the “Production of inflammatory mediators: IL-1” value with IL-1 (Dilution: 0.00005 (% w/v)) is recorded as 291.69 ± 34.42 pg/mL; in the test with IL-1 (Dilution: 0.0002 (% w/v)) it was 187.35 ± 26.22 pg/mL. Further, the “Production of inflammatory mediators: IL-8” value in the test on IL-8 (Dilution: 0.00005 (% w/v)) worked out at 39.07 ± 7.53 pg/mL; in the test with IL-8 (Dilution: 0.0002 (% w/v)) it was 19.39 ± 8.00 pg/mL. The “Production of inflammatory mediators: LTB4” value with LTB4 (Dilution: 0.00005 (% w/v)) amounted to 1282.15 ± 174.81 pg/mL; in the test on LTB4 (Dilution: 0.0002 (% w/v)), 543.82 ± 78.75 pg/mL. Also, the “Production of inflammatory mediators: IL-10” value with IL-10 (Dilution: 0.00005 (% w/v)) is 29.08 ± 1.36 pg/mL; in the test with IL-10 (Dilution: 0.0002 (% w/v)), 23.11 ± 1.08 pg/mL. Also, the “Production of inflammatory mediators: IL-12” value in the test with IL-12 (Dilution: 0.00005 (% w/v)) came out at 1042.00 ± 53.03 pg/mL; in the test with IL-12 (Dilution: 0.0002 (% w/v)), 1004.50 ± 70.71 pg/mL. In the test on TNF-alpha (Dilution: 0.0002 (% w/v)), the “Production of inflammatory mediators: TNF-alpha” value was 4.82 ± 0.32 pg/mL.

Source of the values: patent publication US20200206231A1, “TOPICAL PHARMACEUTICAL COMPOSITION, METHOD FOR PRODUCING THE TOPICAL PHARMACEUTICAL COMPOSITION, USE OF TOPICAL PHARMACEUTICAL COMPOSITION AND METHOD FOR TOPICAL TREATMENT OF PSORIASIS, ATOPIC DERMATITIS OR CHRONIC ECZEMA” (BIOLAB SANUS FARMACÊUTICA LTDA., priority 2012, published 2020).
